Patent US5100776A, “Immunological detection process for herbicides” (Dr. Pfeiffer Bioanalytik KG, priority 1987, dated 1992)

test system: antibody (high specificity for atrazine); assay: Cross-reactivity of triazines and other herbicides in competitive enzyme immunoassay (inhibition of enzyme tracer binding); design: species or system rabbits; settings: Cross-activity at a concentration of 2 ppb; inhibition of the enzymatic detection system
Text: For the preparation of an antibody A, which is preferably directed against the side [drawing 3] of the atrazine molecule, at first the methylthioether group of the triazine ametryn is sulfoxidized with peroxy acid and then the modified ametryn is coupled directly with the beef serum albumin. In the analogous way, for the development of an antibody B, which is preferentially directed against the side: [drawing 4] of the atrazine molecule, one of the ethylamino groups of the triazine simazine is bonded by the carbodiimide process to the protein. Lastly an antibody C which preferably responds to the side: [drawing 5] of the atrazine is produced by coupling the herbicide propazine via one of the isopropylamino groups with the carrier matrix.
The conjugates prepared as above are inoculated for the generation of antibodies A, B and C in laboratory animals (rabbits) which are then extracted from the sera of the immunized animals by known processes or by affinity chromatography by substituents according to formula (I).
The antibodies obtained are adsorbed on the polystyrene surface of the microtiter cavities. To this end, the antibodies are dissolved in carbonate buffer (Na2 CO3 /NaHCO3 : 50 mmol/liter; pH 9.6) and respectively 0.25 ml of the solution obtained is pipetted into the individual cavities of the microtiter plate. In the following incubation takes place overnight at room temperature and washing takes place next day with TBS buffer. The well covered plates are then stored dry at -20° C. For analysis 180 μl of the aqueous sample to be investigated (concentration of the substance investigated is from 1 μg/l to 200 mg/l) are poured into the cavities and respectively 50 μl enzyme tracer, a conjugate of alkaline phosphatase and a triazine, which is selected depending on the type of the antibody, are added in the cavities. If the detection is carried out with antibody A, ametryn is coupled with the enzyme, but if antibody B or antibody C are present, simazine or propazine are used.
The solutions are mixed by brief horizontal shaking of the microtiter plate. After a further incubation period of 1 hour at 20° C., by washing with TBS buffer (50 mmol/l tris-(hydroxymethyl)-aminomethane, 1 mmol/l MgCl2, 50 mmol/l NaCl, pH 7.8 with HCl, 0.05% of polyoxyethylene sorbitan monooleate) all the molecules which are not bonded on the antibody positions are removed. For the quantitative detection of the bonded enzyme tracer, respectively 125 μl phosphatase substrate solution (1 mg p-nitrophenylphosphate per ml carbonate buffer) are poured into the individual cavities. The enzyme reaction takes place at 20° C., but can be accelerated by incubation at higher temperature. The absorption of the solution in the individual cavities is measured by a vertical ray photometer on the wavelength […]. If it is wished to move into the range of higher sensitivities, overnight incubation at 4° C. is recommended. But it must be recalled that without special demands on reagent, device and spatial unit reproducible results in the ppt range are not attainable. The computation of the antigen concentration of the sample is based on the following background. The enzyme tracer bonds at first with the free antibody bonding positions, which are left over after incubation with the sample antigen. Thus in the presence of high concentrations of sample antigen only few enzyme tracers are bonded, but with lower concentration of sample antigens, on the other hand, many enzyme tracers are bonded. The amount of the bonded enzyme tracer is therefore a function of the sample antigen concentration. The absorption of the reacted substrate amount (color reaction from colorless to yellow) is used as the measurement magnitude for the bonding of the enzyme tracer.
Absorption ratio of unknown sample (B=AB AuB) and zero sample (BO=ABO -AuB):
B/BO=(AB -AuB l)/(ABO -AuB) […]

| Compound | inhibition (%) |
| --- | --- |
| CCNc1nc(NC(C)C)nc(SC)n1 [ametryn] | 21.4 |
| CCNc1nc(Cl)nc(NC(C)C)n1 [atrazine, 2-chloro-4-ethylamino-6-isopropylamino-1,3,5-triazine] | 6.0 |
| CCC(C)n1c(=O)[nH]c(C)c(Br)c1=O (stereo not drawn) [bromazile] | 11.1 |
| CSc1nc(N)nc(NC(C)C)n1 [desethylametryn] | 16.8 |
| CCNc1nc(N)nc(SC)n1 [desisopropylametryn] | 16.5 |
| O=C(Oc1ccccc1)n1c(C(F)(F)F)nc2cc(Cl)c(Cl)cc21 [fenazaflor] | 4.4 |
| CNC(=O)N(C)c1nc2ccccc2s1 [metabenzthiazuron] | 8.3 |
| Cc1cccc(C)c1N(Cn1cccn1)C(=O)CCl [metazachlor] | 15.2 |
| CSc1nnc(C(C)(C)C)c(=O)n1N [metribuzine] | 6.7 |
